This note sets out measurements from patent US7482363B2, “Piperidine derivatives useful as modulators of chemokine receptor activity” (AstraZeneca AB, priority 2002, dated 2009).

One test deals with T1, human H1 receptor (Homo sapiens, UniProt P35367).
T1 construct: purchased Euroscreen SA, Brussels, Belgium ES-390-M; host or cells: CHO-K1
Kind of test: Histamine H1 receptor binding, competition displacement of [3H]-pyrilamine. The note with it: 1 nM [3H]-pyrilamine, membranes of recombinant CHO-K1 cells expressing the human H1 receptor; read-out: H1 antagonism pKi (converted). How it is done: Histamine H1 receptor binding activity of compounds of the invention was assessed by competition displacement of 1 nM [3H]-pyrilamine (Amersham, Bucks, Product code TRK 608, specific activity 30 Ci/mmol) to 2 μg membranes prepared from recombinant CHO-K1 cells expressing the human H1 receptor (Euroscreen SA, Brussels, Belgium, product code ES-390-M) in assay buffer (50 mM Tris pH 7.4 containing 2 mM MgCl2, 250 mM sucrose and 100 mM NaCl) for 1 hour at room temperature.
For orientation: Loss of bound radioactivity is the signal in a displacement assay; it reports binding, not function.

Test [1] concerns Human eosinophils (eotaxin mediated chemotaxis). Kind of test: Human eosinophil chemotaxis. Format: cell-based. How it is done: Human Eosinophil Chemotaxis
Human eosinophils were isolated from EDTA anticoagulated peripheral blood as previously described (Hansel et al., J. Immunol. Methods, 1991, 145, 105-110). The cells were resuspended at 10×10^6 ml^−1 in RPMI containing 200 IU/ml penicillin, 200 μg/ml streptomycin sulphate and supplemented with 10% HIFCS, at room temperature.
Eosinophils (700 μl) were pre-incubated for 15 mins at 37° C. with 7 μl of either vehicle or compound (100× required final concentration in 10% DMSO). The chemotaxis plate (ChemoTx, 3 μm pore, Neuroprobe) was loaded by adding 28 μl of a concentration of eotaxin (0.1 to 100 nM) containing a concentration of a compound according to the Examples or solvent to the lower wells of the chemotaxis plate. The filter was then placed over the wells and 25 μl of eosinophil suspension were added to the top of the filter. The plate was incubated for 1 hr at 37° C. in a humidified incubator with a 95% air/5% CO2 atmosphere to allow chemotaxis.
The medium, containing cells that had not migrated, was carefully aspirated from above the filter and discarded. The filter was washed once with phosphate buffered saline (PBS) containing 5 mM EDTA to remove any adherent cells. […] The number of eosinophils migrating was quantified according to the method of Strath et al., J. Immunol. […]

T1 sequence (P35367 whole entry): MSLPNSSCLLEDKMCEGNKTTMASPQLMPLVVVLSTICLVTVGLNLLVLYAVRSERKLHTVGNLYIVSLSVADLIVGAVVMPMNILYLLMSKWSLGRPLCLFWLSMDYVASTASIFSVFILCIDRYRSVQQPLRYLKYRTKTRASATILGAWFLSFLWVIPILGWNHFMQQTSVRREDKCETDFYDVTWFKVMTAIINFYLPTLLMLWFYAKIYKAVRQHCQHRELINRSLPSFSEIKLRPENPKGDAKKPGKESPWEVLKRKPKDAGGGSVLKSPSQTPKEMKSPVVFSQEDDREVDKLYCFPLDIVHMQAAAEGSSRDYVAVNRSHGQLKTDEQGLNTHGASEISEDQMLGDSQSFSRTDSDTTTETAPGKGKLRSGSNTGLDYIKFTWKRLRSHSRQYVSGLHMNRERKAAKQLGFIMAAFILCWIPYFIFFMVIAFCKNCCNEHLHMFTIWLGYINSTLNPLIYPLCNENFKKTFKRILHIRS

Take `COc1cccc(OC)c1C(C(=O)O)N1CCC(N2CCC(Oc3ccc(Cl)c(Cl)c3)CC2)CC1` (stereo not drawn) [Example 2, 4-(3,4-dichlorophenoxy)-α-(2,6-dimethoxyphenyl)-[1,4′-bipiperidine]-1′-acetic acid]: the Ki at human H1 receptor is 158 nM. The “% Inhibition (3 nM Human Eotaxin)” value in test [1] is listed as 90%.
In the same order, the values of `Cc1cc(Cl)ccc1OC1CCN(C2CCN(C(C(=O)O)c3ccccc3)CC2)CC1` (stereo not drawn) [Example 3, 4-(4-chloro-2-methylphenoxy)-α-phenyl-[1,4′-bipiperidine]-1′-acetic acid] are 50.1 nM and 105%.
